pKi: −log10 of the molar value.

The target of assay [1] is T1, human H3 receptors (Homo sapiens (Human), UniProt Q9Y5N1). Description: Potency assessment: blockade of (R)-alpha-methylhistamine-mediated cAMP production (LANCE Ultra cAMP kit). In kind it is cell-based. The settings on record: CHO cells expressing human H3 receptors. How it is done:
The potency of compounds of the invention as H3 receptor antagonists can be assessed by measuring the blockade of (R)-alpha-methylhistamine-mediated cAMP production utilizing a LANCE Ultra cAMP kit (PE #TRF0263) in CHO cells expressing human H3 receptors (GenBank: BC096840; Strausberg R L et al, Proc. Natl. Acad. Sci. U.S.A. 99(26), 16899-16903; 2002).
2. Preparation of assay plate: Different concentrations of the compounds of the invention (0.01-1000 nM), H3 positive controls and cAMP calibration standards; […] Forskolin (CALBIOCHEM #344270); 5 μM (R)-alpha-methylhistamine (H3 receptor agonist); 1% DMSO (SIGMA #D2650); total volume: 95 nl.
3. Preparation of the cell solution: Collect cells with stimulation buffer, final density: 100,000 cells/ml.
4. Reaction: (a) transfer 10 μl of cell solution to assay plate, (b) centrifuge at 600 rpm for 3 min and incubate 50 min at room temperature, (c) add 5 μL 4× Eu-cAMP tracer solution (60 μl Eu-cAMP tracer stock solution+2.94 ml cAMP detection buffer) and 5 μL 4× ULight™-anti-cAMP solution (20 μl […]+2.98 ml cAMP detection buffer) to assay plate.
5. Reading plate on EnVision: flash energy: 100%; excitation filter: 111 UV2 320; emission filter: 203 (Eu 615) and 205 (APC 665); number of laser flashes: 20; window: 100 μs; laser mirror module: 445 or 446; laser cycle: 16,600 μs.
6. Data analysis by GraphPad Prism: log (compound concentration) vs. response; variable slope.
Background: Cyclic AMP is a second messenger, typically raised through Gs and lowered through Gi signalling.

In assay [2] the target is T1, human H3 receptors. Description: Affinity assessment: displacement of [3H]-N-α-Methylhistamine binding to membranes. Conditions: membranes containing human H3 receptors, radioligand [3H]-N-α-Methylhistamine. How it is done:
The affinity of compounds of the invention to the H3 receptor can be assessed by measuring displacement of binding of the radioligand [3H]-N-α-Methylhistamine (PerkinElmer, #NET1027250UC) to membranes containing human H3 receptors (PerkinElmer, #ES-392-M400UA; GenBank: NM_007232.2; Hill S J et al, International Union of Pharmacology XIII. Classification of histamine receptors, Pharmacol Rev, 49(3), 253-278, 1997).
2. Compound serial dilution: Dilution was performed by BioTek Precision on compound dilution plate. Compound concentrations start at 5 or 10 μM, 10 point dose titrations with 3- or 5-fold serial dilutions.
3. Preparation of 2× membrane solution (25 ml): 1.25 ml human Histamine H3 receptor stock, 23.75 ml assay buffer.
4. Preparation of 2× solution of [3H]-N-α-methylhistamine (25 ml): 4.27 μl [3H]-N-α-methylhistamine stock, 25 ml assay buffer.
5. Assemble binding reaction: (a) transfer 1 μl of compound solution, 1 μl 100% DMSO and 1 μl 1 M (R)(−)-α-Methylhistamine (Sigma, #H128) to the reaction plate at room temperature, (b) transfer 50 μl of 2× protein solution to reaction plate, (c) transfer 49 μl of 2× radioligand solution to reaction plate (Corning® 96 well EIA/RIA plate; Sigma, #CLS3797).
6. Cover the reaction plate with a TopSeal™-A film (Perkin Elmer, #6005185) and incubate at 28° C. for 120 min. Equilibrate Zeba Spin Desalting Plates (Thermo Scientific, #89808) to room temperature for 120 min.
7. Remove the sealing material from the bottom of the filtration plate. Place the plate on a wash plate. Centrifuge at 1000 g for 2 min to remove the storage buffer at room temperature.
8. Transfer 70 μl binding reaction from reaction plate into filtration plates. Place the filtration plates on top of collection plate. Centrifuge the plate assembly at 1000 g for 2 min to collect the protein with bound radioligand. Add 200 μl of Microscint-40 (PerkinElmer, #6013641-1L) to each well of the collection plate. Cover the plates with TopSeal™-A film.
9. Read the plates on Wallac Microbeta Trilux 2450, Instrument settings: counting mode: CPM, counting time: 2 min.
10. Data analysis: GraphPad Prism: log (compound concentration) vs. response; variable slope. The Ki is calculated based on Chang and Prusoff: Ki=IC50/{1+([radioligand]/Kd)}

T1 sequence (Q9Y5N1 whole entry): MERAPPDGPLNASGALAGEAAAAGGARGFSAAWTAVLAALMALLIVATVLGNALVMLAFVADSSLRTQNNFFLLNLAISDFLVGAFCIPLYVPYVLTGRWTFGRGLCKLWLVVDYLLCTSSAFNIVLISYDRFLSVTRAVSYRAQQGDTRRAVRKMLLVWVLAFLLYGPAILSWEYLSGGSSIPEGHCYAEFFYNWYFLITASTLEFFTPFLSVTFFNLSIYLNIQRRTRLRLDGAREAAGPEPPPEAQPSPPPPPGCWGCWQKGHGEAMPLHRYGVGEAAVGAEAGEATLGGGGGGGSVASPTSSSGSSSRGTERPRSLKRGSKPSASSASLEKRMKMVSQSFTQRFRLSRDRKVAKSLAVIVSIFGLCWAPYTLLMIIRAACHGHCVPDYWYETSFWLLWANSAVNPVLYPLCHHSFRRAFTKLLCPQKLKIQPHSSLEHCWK

What is called pKi is the negative decadic logarithm of the Ki, by convention in mol/L. Higher therefore signals a low Ki. On to `CC(C)N1CCN(C(=O)OC2CCN(c3ccc(=O)[nH]n3)CC2)CC1` [Example 1.3, 1-(6-oxo-1,6-dihydropyridazin-3-yl)piperidin-4-yl 4-isopropylpiperazine-1-carboxylate], for which the values for the negative-log Ki (pKi) at human H3 receptors [1] and on human H3 receptors [2] were 8.92 and 8.00, respectively.
Turning to `O=C(OC1CCN(c2ccc(=O)[nH]n2)CC1)N1CCN(C2CCC2)CC1` [Example 1.1, 1-(6-oxo-1,6-dihydropyridazin-3-yl)piperidin-4-yl 4-cyclobutylpiperazine-1-carboxylate], the negative logarithm of the Ki (pKi) at human H3 receptors [1] was 8.89; at human H3 receptors [2], 7.59.
For the compound `CC(C)N1CCN(C(=O)OC2CCN(c3ccc(=O)n(C)n3)CC2)CC1` [Example 1.2, 1-(1-methyl-6-oxo-1,6-dihydropyridazin-3-yl)piperidin-4-yl 4-isopropylpiperazine-1-carboxylate], the pKi on human H3 receptors [1] is 8.62; on human H3 receptors [2], 7.51.

(Values after US9034874B2, “Carbamate/urea derivatives” (NOVARTIS AG, priority 2012, dated 2015).)
